Data published in patent publication US20050027003A1, “Methods of therapeutic treatment using retinoids with reduced side effects” (Allergan, Inc., priority 2003, published 2005).
Where two headings read alike, the source gives them in different places.

Key:
[1] = in vivo; cited from earlier work
patients [2] = details: published data (N = 525); cited from earlier work
[3] = in vivo; cited from earlier work; remark: listed apart in the source
[4] = oral; cited from earlier work
RARs = assay: Activation of and selectivity among the retinoic acid receptors; assay type: cell-based; details: relative to all-trans-retinoic acid, the natural ligand
Description: (§1) The selection of a retinoid component useful in accordance with the present invention can be accomplished using straightforward, conventional testing and/or assays, such as the transactivation assays set forth in Evans et al., U.S. Pat. Nos., 5,217,867; 5,262,300; 5,310,662; and 5,906,920, each of which is hereby incorporated in its entirety herein by reference, which are well known in the art. Such testing and/or assays can identify suitable useful retinoid components without undue experimentation.
(§2) Other well known and straightforward test methods and/or assays may be employed to determine the selectivity or specificity of an RAR active compound to RAR-alpha, RAR-beta and RAR-gamma. For example, using conventional and well known assays, for example, such as set forth in Klein et al. U.S. Pat. No. 5,776,699, the disclosure of which is incorporated in its entirety herein by reference, and/or the above-noted Evans et al. patents, the selectively or specificity of a compound to RAR-alpha, RAR-beta and RAR-gamma can be determined. Based on the results of such assays, one can determine whether or not a compound is useful in accordance with one or more aspects of the present invention.

[5] = Example 1: 6.3 mg oral tazarotene with high-fat meal vs 8-10 hour fast, pharmacokinetics; assay type: in vivo, human
Protocol: (§3) The LC-MS/MS test for simultaneous detection of tazarotene and tazarotenic acid may be run as follows. One ml of plasma (EDTA-treated) is diluted with 1.0 ml of water. Diluted plasma is extracted using solid phase extraction (SPE) on a C18 cartridge. The eluate is evaporated, reconstituted in a water/methanol-based mobile phase, and injected onto a 4.6×50 mm, 3 μm pore size C-8 reverse phase high pressure liquid chromatography (HPLC) column (Agilent, Wilmington, Del.). Compounds are gradient-eluted at 1.2 mL/min and detected using an API 3000 triple quadrupole mass spectrometer with an Atmospheric Pressure Chemical Ionization (APCI) source (PE-Sciex, Concord, Ontario, Canada). Molecular reaction monitoring enhances the sensitivity and selectivity of this assay by collisionally dissociating the protonated molecules for the analyte and an internal standard thereby forming the product ions. The specific precursor-product ion pair monitored are m/z 352→324 for tazarotene, m/z 359→331 for the tazarotene internal standard, m/z 324→294 for tazarotenic acid, and m/z 331+298 for the tazarotenic acid internal standard. The lower limit of quantitation at assay range tested is 0.1 ng/mL, with a coefficient of variation and deviation from nominal concentration of <15%.

RAR-α = target: T1, RAR-α (Homo sapiens, UniProt P10276); assay: RAR-α activity; assay type: cell-based
T1 sequence (P10276 1-462): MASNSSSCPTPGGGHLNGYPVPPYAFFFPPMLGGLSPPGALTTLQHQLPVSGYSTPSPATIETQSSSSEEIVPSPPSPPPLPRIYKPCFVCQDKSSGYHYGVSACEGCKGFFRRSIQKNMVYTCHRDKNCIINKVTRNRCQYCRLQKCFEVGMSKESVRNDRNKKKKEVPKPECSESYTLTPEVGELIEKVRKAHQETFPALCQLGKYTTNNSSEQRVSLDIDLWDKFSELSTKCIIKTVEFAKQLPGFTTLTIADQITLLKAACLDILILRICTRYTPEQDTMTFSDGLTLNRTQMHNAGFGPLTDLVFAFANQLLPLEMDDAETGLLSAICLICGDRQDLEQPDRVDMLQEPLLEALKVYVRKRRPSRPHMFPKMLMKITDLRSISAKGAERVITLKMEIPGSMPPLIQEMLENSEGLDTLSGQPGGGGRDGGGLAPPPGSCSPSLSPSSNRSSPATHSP
Description: as §1, §2

[6] = Example 7: effect of body weight on plasma tazarotenic acid Cmax and AUC; assay type: in vivo, human; details: 6 mg tazarotene daily
Protocol: as §3, with “<15%. […]” for “<15%.”

patients [7] = details: published data (N = 525); cited from earlier work; remark: listed apart in the source

Structure (SMILES): CC1=C(/C=C/C(C)=C/C=C/C(C)=C\C(=O)O)C(C)(C)CCC1 [isotretinoin]
- interaction with coadministered contraceptives [1]: decreases blood concentrations of both ethinyl estradiol and norethindrone
- Adverse event: Cheilitis (patients [2]): 472 (90.2) number (%) of patients
- Adverse event: Conjunctivitis (patients [2]): 201 (38.4) number (%) of patients
- Adverse event: Desquamation central face/Desquamation (patients [2]): 187 (35.8) number (%) of patients
- Adverse event: Dry Skin (patients [2]): 172 (32.9) number (%) of patients
- Adverse event: Dry nose (patients [2]): 136 (26.0) number (%) of patients
- Adverse event: Epistaxis (patients [2]): 121 (23.1) number (%) of patients
- Adverse event: Fingertip peeling/Desquamation (patients [2]): 63 (12.0) number (%) of patients
- Adverse event: Headache (patients [2]): 44 (8.4) number (%) of patients
- Adverse event: Irritation of eyes (patients [2]): 85 (16.3) number (%) of patients
- Adverse event: Joint pain/Arthralgia (patients [2]): 60 (11.5) number (%) of patients
- Adverse event: Pruritus (patients [2]): 127 (24.3) number (%) of patients
- Adverse event: Rash-dermatitis/Rash (patients [2]): 82 (15.7) number (%) of patients
- Adverse event: Red Scaly face/Desquamation (patients [2]): 54 (10.3) number (%) of patients
- Adverse event: Skin fragility/Skin disorder (patients [2]): 164 (31.4) number (%) of patients
- bioavailability vs body weight [3]: increased with a reduced body weight
- total dose to reach the same peak blood concentration in the fasted state as following a high fat meal [4]: more than doubled

Structure (SMILES): CC1(C)CCSc2ccc(C#Cc3ccc(C(=O)O)cn3)cc21 [tazarotenic acid]
- receptor specificity and selectivity (RARs): specificity for the RARs and selectivity for RAR-β and RAR-γ
- average ratio of Cmax (test/reference) ([5]; Day 0, high-fat meal vs fasted): 1.00
- effect of high-fat meal on bioavailability or pharmacokinetics ([5]; single and multiple dose): does not substantially affect
- RAR-α activity (RAR-α): minimal
- correlation of AUC with body weight ([6]; day 0): may be a correlation
- correlation between either Cmax or AUC and body weight ([6]; day 9): no correlation

Structure (SMILES): CCOC(=O)/C=C(C)/C=C/C=C(C)/C=C/c1c(C)cc(OC)c(C)c1C [etretinate]
- bioavailability vs body weight [3]: increased with a reduced body weight

Structure (SMILES): COc1cc(C)c(/C=C/C(C)=C/C=C/C(C)=C/C(=O)O)c(C)c1C [acitretin]
- interaction with coadministered contraceptives [1]: interferes with the contraceptive effect
- bioavailability vs body weight [3]: increased with a reduced body weight
- Adverse event: Alopecia (patients [7]): 319 (60.8) number (%) of patients
- Adverse event: Arthralgia (patients [7]): 102 (19.4) number (%) of patients
- Adverse event: Atrophy of skin (patients [7]): 64 (12.2) number (%) of patients
- Adverse event: Back pain (patients [7]): 41 (7.8) number (%) of patients
- Adverse event: Cheilitis (patients [7]): 429 (81.7) number (%) of patients
- Adverse event: Dry Skin (patients [7]): 174 (33.1) number (%) of patients
- Adverse event: Dry mouth/Oral dryness (patients [7]): 76 (14.5) number (%) of patients
- Adverse event: Epistaxis (patients [7]): 61 (11.6) number (%) of patients
- Adverse event: Erythematous rash/Erythema (patients [7]): 57 (10.9) number (%) of patients
- Adverse event: Hyperesthesia (patients [7]): 66 (12.6) number (%) of patients
- Adverse event: Nail Disorder (patients [7]): 170 (32.4) number (%) of patients
- Adverse event: Paresthesia (patients [7]): 56 (10.7) number (%) of patients
- Adverse event: Paronychia/Nail disorder (patients [7]): 66 (12.6) number (%) of patients
- Adverse event: Pruritus (patients [7]): 157 (29.9) number (%) of patients
- Adverse event: Rhinitis (patients [7]): 153 (29.1) number (%) of patients
- Adverse event: Rigors/Chills (patients [7]): 67 (12.8) number (%) of patients
- Adverse event: Skin peeling/Desquamation (patients [7]): 345 (65.7) number (%) of patients
- Adverse event: Sticky skin/Skin disorder (patients [7]): 129 (24.6) number (%) of patients
- Adverse event: Xerophthalmia/Eye disorder (patients [7]): 112 (21.3) number (%) of patients
